Reference: US10973920B2, “Saccharide derivative of a toxic payload and antibody conjugates thereof” (priority 2014, dated 2021)
Values joined by “and” are separate entries in the source; they are usually repeats but may differ in a detail not shown here. Equal entries are not always repeated. Where a SMILES comes first, the peptide text is derived from it. [ ]: non-standard residue; d: D form. The star is where a group is joined. X1 = C[C@@H](N*)[C@@H](O[C@@H]1O[C@H](CO)[C@H](O)[C@H](O)[C@H]1O)c1ccccc1; Dolaproine = CO[C@@H]([C@@H]1CCCN1)[C@@H](C)C(=O)O; Dil = CC[C@H](C)[C@H](NC)[C@@H](CC(=O)O)OC; X2 = C[C@@H](N*)[C@@H](O)c1ccccc1; NMeV = CN[C@H](C(=O)O)C(C)C

System: cancer cells (SKOV-3 and HSC-2)
Test: Cytotoxicity to cancer cells, PrestoBlue cell viability, 96 h
Details: for IC50: concentration wherein cancer cell viability falls to 50%, cell line not given
Experimental: Human ovarian cancer cell line SKOV-3 (ATCC, Manassas, Va., USA) and head-and-neck squamous cell carcinoma cell line HSC-2 (Japanese Collection of Research Bioresources, Osaka, Japan) were grown according to the suppliers' recommendations. Log phase cultures were collected and cells were seeded onto 96-well plates and incubated for 24 h. Serial dilutions of test molecules were added to cells and cultures were incubated further for 96 h. Cell viability was evaluated using PrestoBlue cell viability reagent (Life Technologies, Carlsbad, Calif., USA) according to the manufacturer's instructions. Cells were incubated for 2 h, and dye reduction was measured by absorbance at 570 nm. The compounds were assayed 1-2 times in triplicate.
The results are expressed in Table 1 as IC50 values.

CC[C@H](C)[C@@H]([C@@H](CC(=O)N1CCC[C@H]1[C@H](OC)[C@@H](C)C(=O)N[C@H](C)[C@@H](O)c1ccccc1)OC)N(C)C(=O)[C@@H](NC(=O)[C@@H](NC)C(C)C)C(C)C [MMAE, monomethylauristatin E] (H-[NMeV]V[Dil][Dolaproine]-X2)
IC50: ~0.01 µM and 0.01 µM

CC[C@H](C)[C@@H]([C@@H](CC(=O)N1CCC[C@H]1[C@H](OC)[C@@H](C)C(=O)N[C@H](C)[C@@H](O[C@@H]1O[C@H](CO)[C@H](O)[C@H](O)[C@H]1O)c1ccccc1)OC)N(C)C(=O)[C@@H](NC(=O)[C@@H](NC)C(C)C)C(C)C [MMAG, O-β-D-galactopyranosylmonomethylauristatin E] (H-[NMeV]V[Dil][Dolaproine]-X1)
IC50: > 0.1 µM | Cytotoxicity (in words) (concentrations up to 100 nM): relatively non-toxic
